Measurements published in the Deep4Chem optical property database.
Where “and” joins values, the source holds several entries; their conditions need not be identical. Identical values can stand only once. Blank lines part the entries; values can stand above or below the compound they belong to.

Test: solvent given as SMILES
[1] = in O=P(c1ccccc1)(c1ccccc1)c1ccccc1Oc1ccccc1P(=O)(c1ccccc1)c1ccccc1

emission maximum (in C1CCCCC1): 295.77 nm
Structure (SMILES): Cc1ccc(C)c(C)c1

emission maximum (in O): 672 nm
Structure (SMILES): CC1(CCCCC(=O)NCCCCCCO)C(/C=C/C=C/C=C2/N(CCCS(=O)(=O)[O-])c3ccc(S(=O)(=O)[O-])cc3C2(C)C)=[N+](CCCS(=O)(=O)[O-])c2ccc(S(=O)(=O)[O-])cc21 (centres undefined)

emission maximum (in ClCCl): 471 nm
Structure (SMILES): CN(/N=C1\N=C(N)C2(CCCC2)c2ccccc21)c1ccccc1

emission maximum (in ClCCl): 358 nm
Structure (SMILES): C[Si](C)(C)c1ccc(-c2nc3ccccc3n2-c2ccccc2)cc1

emission maximum (in CCO): 616 nm
Structure (SMILES): CC1=CC(C)(C)N(C)c2cc3c(cc21)C(c1ccc(Br)cc1)=c1cc2c(cc1O3)=[N+](C)C(C)(C)C=C2C

emission maximum (in CC#N): 406 nm
Structure (SMILES): CN(C)c1ccc(-c2nc3cc(C(F)(F)F)ccc3n2-c2ccccc2)cc1

emission maximum (in ClCCl): 431 nm
Structure (SMILES): c1ccc(-c2c3ccccc3c(-c3ccc4ccccc4c3)c3ccccc23)nc1

emission maximum (in CS(C)=O): 510 nm
Structure (SMILES): CCOC(=O)C1=C(N)n2c(=O)c3ccccc3c(=O)n2C1c1ccc([N+](=O)[O-])cc1 (centres undefined)

emission maximum (in CC#N): 452 nm
Structure (SMILES): Cc1cccc2nc3[nH]c(=O)[nH]c(=O)c3nc12

emission maximum (in ClCCl): 392 nm
Structure (SMILES): C(#Cc1ccc2c(c1)c1cc(C#Cc3ccccc3)ccc1n2-c1cc2ccccc2c2ccccc12)c1ccccc1

emission maximum (in ClCCl): 424 nm
Structure (SMILES): COc1ccc(-c2ccc3c(c2)[Si](C)(C)c2cc(-c4ccc(OC)cc4)ccc2C=C3)cc1

emission maximum (in ClCCl): 420 nm
Structure (SMILES): COc1ccc(-c2ccc(C(=O)NC(C)(C)C)c3c2ccc2c4ccccc4c4ccccc4c23)cc1

emission maximum (in C1CCOC1): 546 nm | emission maximum (in CCCCCC): 443 nm | emission maximum (in ClC(Cl)Cl): 495 nm | emission maximum (in ClCCl): 568 nm
Structure (SMILES): O=C1c2cccc3c(-n4c5ccccc5c5ccccc54)ccc(c23)C(=O)N1c1ccccc1

emission maximum (in O): 435 nm
Structure (SMILES): O=S(=O)([O-])c1ccc([O-])c2ccccc12

emission maximum (in C1CCOC1): 555 nm
Structure (SMILES): c1cc2ccc1-c1ccc(cc1)-c1sc(c3c1OCCO3)-c1ccc(cc1)-c1ccc(cc1)-c1sc(c3c1OCCO3)-c1ccc(cc1)-c1ccc(cc1)-c1sc-2c2c1OCCO2

emission maximum (in CC#N): 405 nm
Structure (SMILES): CN(C)c1ccc(-n2c(-c3ccncc3)nc3nccnc32)cc1

emission maximum (in ClCCl): 467 nm
Structure (SMILES): C[Si](C)(C)C#Cc1cc(C#C[Si](C)(C)C)c2ccc3c(C(=O)c4ccccc4)cc(C#C[Si](C)(C)C)c4ccc1c2c43

emission maximum (in CC#N): 465 nm
Structure (SMILES): COc1ccc(C#Cc2ccc3ccc(=O)oc3c2)cc1

emission maximum (in CC#N): 496 nm | emission maximum (in CO): 509 nm
Structure (SMILES): O=C1c2ccccc2-c2c(-c3ccc([N+](=O)[O-])cc3)c(-c3ccc([N+](=O)[O-])cc3)c(-c3ccccc3)c3cccc1c23

Continued, compound first:

Structure (SMILES): COC(=O)C(Cc1ccc2oc(-c3ccc(Nc4ccccc4)cc3)nc2c1)NC(=O)OC(C)(C)C (centres undefined)
emission maximum (in C1CCCCC1): 382 nm | emission maximum (in C1CCOC1): 419.01 nm | emission maximum (in C1COCCO1): 410.51 nm | emission maximum (in CC1CCCO1): 425.01 nm | emission maximum (in CC1COC(=O)O1): 457.5 nm | emission maximum (in CC#N): 452 nm | emission maximum (in CC(C)=O): 439.5 nm | emission maximum (in CC(C)CC(C)(C)C): 384 nm | emission maximum (in CC(C)CO): 438 nm | emission maximum (in CC(C)O): 440.51 nm | emission maximum (in CC(C)OC(C)C): 426 nm | emission maximum (in CC(O)CO): 438 nm | emission maximum (in CCC(C)CC): 382.98 nm | emission maximum (in CCCCC): 382 nm | emission maximum (in CCCCCC): 383.49 nm | emission maximum (in CCCCCCCCC): 384.5 nm | emission maximum (in CCCCCCCCCC): 385 nm | emission maximum (in CCCCCCCO): 434.5 nm | emission maximum (in CCCCCCO): 429 nm | emission maximum (in CCCCCO): 424 nm | emission maximum (in CCCCO): 441.5 nm | emission maximum (in CCO): 453.49 nm | emission maximum (in CCOC(C)=O): 412 nm | emission maximum (in CCOCC): 409.5 nm | emission maximum (in CN(C)C=O): 447.51 nm | emission maximum (in CO): 457 nm | emission maximum (in COCCOC): 440.01 nm | emission maximum (in CS(C)=O): 459.5 nm | emission maximum (in Cc1ccccc1): 401.49 nm | emission maximum (in Cc1ccccc1C): 401.49 nm | emission maximum (in ClC(Cl)Cl): 420.01 nm | emission maximum (in ClCCl): 415.51 nm | emission maximum (in NC=O): 447.01 nm | emission maximum (in OC1CCCCC1): 440.01 nm | emission maximum (in OCCO): 443.01 nm | emission maximum (in c1ccccc1): 398.5 nm

Structure (SMILES): CC(C)(C)c1ccc2c(c1)c1cc(C(C)(C)C)ccc1n2-c1cc[n+]2c(c1)-c1ccccc1O[B-]2(F)F
emission maximum (in Cc1ccccc1): 473 nm | emission maximum [1]: 488 nm

Structure (SMILES): COc1ccc(C2=C(c3ccc(OC)cc3)c3cccc4c5c(cc(c34)O2)=NC2C=C(Br)C(Br)=CC2N=5)cc1 (centres undefined)
emission maximum (in ClCCl): 609 nm

Structure (SMILES): C(=C\c1ccc(-c2cccc3ccccc23)s1)/c1cccs1
emission maximum (in ClCCl): 453 nm

Structure (SMILES): CC(C)[Si](C#Cc1ccc(C#C[Si](C(C)C)(C(C)C)C(C)C)c2nc3cc4c(cc3nc12)[C@H]1c2ccccc2[C@@H]4c2ccccc21)(C(C)C)C(C)C
emission maximum (in CCCCCC): 455 nm | emission maximum (in ClCCl): 473 nm

Structure (SMILES): COc1ccc(/C=C/c2ccc(/C=C/c3cc[n+]4ccc(/C=C/c5ccc(/C=C/c6ccc(OC)cc6)cc5)cc4c3)cc2)cc1
emission maximum (in CO): 620 nm

Structure (SMILES): COc1ccc(C2=C(c3ccc(-c4ccccc4)cc3)C(c3ccccc3)=[N+]3C2=Nc2c(-c4ccc(OC)cc4)c(-c4ccc(-c5ccccc5)cc4)c(-c4ccccc4)n2[B-]3(F)F)cc1
emission maximum (in Cc1ccccc1): 716 nm

Structure (SMILES): COc1ccc2c(c1)nc(-c1ccccc1)n2-c1ccccc1
emission maximum (in CC#N): 391 nm

Structure (SMILES): c1cc2ccc3cc4[nH]c(-c5cc6c(cc7ccc8cccc9ccc6c7c89)[nH]5)cc4c4ccc(c1)c2c34
emission maximum (in C1CCOC1): 482 nm

Structure (SMILES): CCCCc1cc(-c2cccc(COC)c2)oc1-c1cccc(-c2cc(CCCC)c(-c3cccc(-c4oc(-c5cccc(-c6oc(-c7cccc(COC)c7)cc6CCCC)c5)cc4CCCC)c3)o2)c1
emission maximum (in ClC(Cl)Cl): 373 nm

Structure (SMILES): C[n+]1ccc(/C=C/c2cc[n+](C)cc2)cc1
emission maximum (in CC#N): 372 nm

Structure (SMILES): COc1ccc2c(c1)c1ccc3cccc4c5cccc6oc(=O)c2c(c65)c1c34
emission maximum (in C1CCOC1): 440 nm

Structure (SMILES): COc1ccc(/C=C/C(=O)c2c(O)cc(C)oc2=O)cc1
emission maximum (in CC#N): 488 nm | emission maximum (in ClCCl): 487 nm

Structure (SMILES): COc1cc(/C=C/c2nc3ccccc3o2)c(OC)cc1/C=C/c1nc(C)nc(C)n1
emission maximum (in C1CCOC1): 483 nm | emission maximum (in CC#N): 495 nm | emission maximum (in ClC(Cl)Cl): 490 nm | emission maximum (in ClCCl): 492 nm

Structure (SMILES): COc1ccc(-c2n[n+]3c(s2)N=C(c2ccccc2)O[B-]3(F)F)cc1
emission maximum (in Cc1ccccc1): 436 nm

Structure (SMILES): c1ccc(-c2nc3cc4c(cc3n2-c2ccccc2)nc(-c2ccccc2)n4-c2ccccc2)cc1
emission maximum (in CC#N): 397 nm

Structure (SMILES): O=C(Cc1ccccc1)OCc1ccc2c3cccc4cccc(c5cccc1c52)c43
emission maximum (in CCO): 445 nm

Structure (SMILES): COc1ccc(/C=C/C2=C3CCc4ccccc4C3=[O+][B-](F)(F)O2)cc1
emission maximum (in ClCCl): 515 nm

Structure (SMILES): COc1ccc(C#Cc2ccc(C#N)cc2)cc1OC
emission maximum (in C1COCCO1): 400 nm | emission maximum (in CC#N): 451 nm | emission maximum (in CCCCCC): 346 nm | emission maximum (in CCCCCCC): 347 nm | emission maximum (in CCCO): 425 nm | emission maximum (in CCOC(C)=O): 408 nm | emission maximum (in CS(C)=O): 462 nm | emission maximum (in ClC(Cl)Cl): 404 nm | emission maximum (in ClCCl): 417 nm

Structure (SMILES): c1ccc(Cn2c3sccc3c3c4nsnc4c4c5ccsc5n(Cc5ccccc5)c4c32)cc1
emission maximum (in Cc1ccccc1): 508 nm | emission maximum (in ClCCl): 541 nm

Structure (SMILES): CC1=[N+]2C(=C(c3c4ccccc4cc4ccccc34)c3ccc(C)n3[B-]2(F)F)C=C1
emission maximum (in C1CCOC1): 528 nm | emission maximum (in CC#N): 524 nm | emission maximum (in CCCCCC): 524 nm and 528 nm | emission maximum (in CCO): 524 nm | emission maximum (in CN(C)C=O): 531 nm | emission maximum (in CO): 527 nm | emission maximum (in CS(C)=O): 529 nm | emission maximum (in Cc1ccccc1): 530 nm | emission maximum (in ClC(Cl)Cl): 526 nm | emission maximum (in ClCCl): 528 nm

Structure (SMILES): O=C(c1ccc(C(=O)c2ccc(N3c4ccccc4Oc4ccccc43)cc2)cc1)c1ccc(N2c3ccccc3Oc3ccccc32)cc1
emission maximum (in Cc1ccccc1): 600 nm | emission maximum (in c1cc(-c2cccc(-n3c4ccccc4c4ccccc43)c2)cc(-n2c3ccccc3c3ccccc32)c1): 555 nm

Structure (SMILES): COc1c2ccccc2c(OC)c2c(C#CC(C)(C)C)c3cc4sccc4cc3c(C#CC(C)(C)C)c12
emission maximum (in ClCCl): 634 nm

Structure (SMILES): O=Cc1nc2ccc(C#Cc3ccc(N(c4ccccc4)c4ccccc4)cc3)cc2s1
emission maximum (in Cc1ccccc1): 519 nm

Structure (SMILES): COc1ccc2cc(/C=C/C3=[O+][B-](F)(F)OC(/C=C/c4ccc5cc(OC)ccc5c4)=C3c3ccccc3)ccc2c1
emission maximum (in ClCCl): 600 nm

Structure (SMILES): CC[N+]1(CC)CN2C(=N1)C(C(=O)O)=Cc1cc(OC)ccc12
emission maximum (in O): 491 nm

Structure (SMILES): CCCCCCCCN1C(=O)c2ccc3c4c(-c5ccc6c7ccccc7n(-c7ccccc7)c6c5)cc5c6c(cc(-c7ccc8c9ccccc9n(-c9ccccc9)c8c7)c(c7ccc(c2c37)C1=O)c64)C(=O)N(CCCCCCCC)C5=O
emission maximum (in ClC(Cl)Cl): 644 nm

Structure (SMILES): CCN(CC)c1ccc([N+]2=Cc3ccc4c5c(ccc4c3O[B-]2(c2ccccc2)c2ccccc2)C=[N+](c2ccc(N(CC)CC)cc2)[B-](c2ccccc2)(c2ccccc2)O5)cc1
emission maximum (in Cc1ccccc1): 627 nm | emission maximum (in ClCCl): 644 nm

Structure (SMILES): Cc1cc(C)c(B(c2ccc(N3c4ccccc4Oc4ccccc43)cc2)c2c(C)cc(C)cc2C)c(C)c1
emission maximum (in C1CCCCC1): 475.13 nm | emission maximum (in C1CCOC1): 602.56 nm | emission maximum (in CN(C)C=O): 665.64 nm | emission maximum (in Cc1ccccc1): 540 nm | emission maximum (in ClCCl): 598.46 nm

Structure (SMILES): COc1ccc(N(c2ccc(OC)cc2)c2ccc3c(c2)C2(c4cc(N(c5ccc(OC)cc5)c5ccc(OC)cc5)ccc4C=C3)c3ccccc3-c3ccccc32)cc1
emission maximum (in ClCCl): 483 nm

Structure (SMILES): CCCCCCCCn1cc(-n2c(-c3cc(-c4nc5ccc(C)cc5n4-c4cn(CCCCCCCC)nn4)cc(-c4nc5ccc(C)cc5n4-c4cn(CCCCCCCC)nn4)c3)nc3ccc(C)cc32)nn1
emission maximum (in C1CCOC1): 382.5 nm

Structure (SMILES): CCN(CC)c1ccc2cc(C#N)/c(=N\C(=O)C(C)C)oc2c1
emission maximum (in CCO): 470 nm | emission maximum (in ClCCl): 460 nm

Structure (SMILES): c1ccc(-c2cc(-c3ccc(N4c5ccccc5C(c5ccccc5)(c5ccccc5)c5ccccc54)cc3)nc(-c3ccccc3)n2)cc1
emission maximum (in Cc1ccccc1): 450 nm | emission maximum [1]: 464 nm

Structure (SMILES): CC(C)(C)c1ccc2c(c1)c1cc(C(C)(C)C)ccc1n2-c1cccs1
emission maximum (in ClCCl): 368 nm
